From article PMC13408523, “Psoralen and Seselin Stabilize the α-helix Structure in Lysozyme and Inhibit the α-helix to β-sheet Exchange: An Efficient Anti-Amyloidogenic Mechanism” (Advanced Pharmaceutical Bulletin, 2025)
Where two headings read alike, the source gives them in different places.

Biological target: T1, hen egg white lysozyme (HEWL) (Gallus gallus, UniProt P00698)
T1 construct: gene LYZ
Assay: SPR (HEWL amine-coupled on CMD gold chip, […]°C); intrinsic fluorescence quenching
Assay type: binding

T1 sequence (P00698 19-147): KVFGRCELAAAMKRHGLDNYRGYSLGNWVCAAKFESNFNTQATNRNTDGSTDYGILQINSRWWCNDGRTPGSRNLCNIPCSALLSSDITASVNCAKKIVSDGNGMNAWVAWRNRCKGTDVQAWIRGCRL

CC1(C)C=Cc2c(ccc3ccc(=O)oc23)O1 [seselin]
Kd (read-out: Kd): 46.8 µM

O=c1ccc2cc3ccoc3cc2o1 [psoralen]
Kd: 9.32 µM
